Experimental data taken from ChEMBL document CHEMBL5465560, “Selectivity Literature for EUbOPEN Chemogenomic Library” (2024).
pEC50: −log10 of the molar value. Blank lines part the entries; values can stand above or below the compound they belong to.

Key:
[1] = biological target: T1, Ephrin type-A receptor 3 (Homo sapiens) (UniProt P29320); assay: Selectivity interaction (KinomeScan (DiscoverX)) EUB0000092b EPHA3; details: at 10 µM
T1 sequence (whole entry): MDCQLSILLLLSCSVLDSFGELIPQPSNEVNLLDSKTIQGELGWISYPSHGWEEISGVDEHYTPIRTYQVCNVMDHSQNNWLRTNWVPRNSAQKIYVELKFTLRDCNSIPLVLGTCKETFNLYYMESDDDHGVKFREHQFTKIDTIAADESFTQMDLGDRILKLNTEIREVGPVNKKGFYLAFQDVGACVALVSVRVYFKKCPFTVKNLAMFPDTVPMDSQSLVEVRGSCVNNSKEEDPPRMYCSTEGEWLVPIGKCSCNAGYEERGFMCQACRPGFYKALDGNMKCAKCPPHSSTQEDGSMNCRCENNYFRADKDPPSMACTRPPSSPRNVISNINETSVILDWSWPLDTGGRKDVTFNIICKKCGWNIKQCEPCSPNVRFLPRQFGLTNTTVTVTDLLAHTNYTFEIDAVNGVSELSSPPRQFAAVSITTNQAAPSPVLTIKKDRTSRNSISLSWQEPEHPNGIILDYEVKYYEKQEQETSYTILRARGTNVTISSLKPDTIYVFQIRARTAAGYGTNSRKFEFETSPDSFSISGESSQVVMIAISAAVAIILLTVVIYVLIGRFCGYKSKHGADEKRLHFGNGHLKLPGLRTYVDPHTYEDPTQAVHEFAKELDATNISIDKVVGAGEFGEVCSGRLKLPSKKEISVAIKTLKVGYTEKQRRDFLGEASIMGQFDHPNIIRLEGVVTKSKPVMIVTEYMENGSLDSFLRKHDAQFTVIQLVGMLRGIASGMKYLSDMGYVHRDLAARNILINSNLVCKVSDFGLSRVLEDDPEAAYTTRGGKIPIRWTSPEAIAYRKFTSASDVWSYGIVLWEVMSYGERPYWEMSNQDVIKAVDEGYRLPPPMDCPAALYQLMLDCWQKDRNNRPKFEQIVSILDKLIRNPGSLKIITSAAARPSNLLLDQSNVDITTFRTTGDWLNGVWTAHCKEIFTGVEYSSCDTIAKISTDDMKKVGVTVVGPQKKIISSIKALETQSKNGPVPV

[2] = biological target: Tyrosine-protein kinase Fes/Fps (Homo sapiens) (UniProt P07332); assay: Selectivity interaction (Upstate Kinase Profiler service (Millipore)) EUB0000056c FES; details: at 1 µM
Chain of Tyrosine-protein kinase Fes/Fps (Homo sapiens) (P07332 whole entry): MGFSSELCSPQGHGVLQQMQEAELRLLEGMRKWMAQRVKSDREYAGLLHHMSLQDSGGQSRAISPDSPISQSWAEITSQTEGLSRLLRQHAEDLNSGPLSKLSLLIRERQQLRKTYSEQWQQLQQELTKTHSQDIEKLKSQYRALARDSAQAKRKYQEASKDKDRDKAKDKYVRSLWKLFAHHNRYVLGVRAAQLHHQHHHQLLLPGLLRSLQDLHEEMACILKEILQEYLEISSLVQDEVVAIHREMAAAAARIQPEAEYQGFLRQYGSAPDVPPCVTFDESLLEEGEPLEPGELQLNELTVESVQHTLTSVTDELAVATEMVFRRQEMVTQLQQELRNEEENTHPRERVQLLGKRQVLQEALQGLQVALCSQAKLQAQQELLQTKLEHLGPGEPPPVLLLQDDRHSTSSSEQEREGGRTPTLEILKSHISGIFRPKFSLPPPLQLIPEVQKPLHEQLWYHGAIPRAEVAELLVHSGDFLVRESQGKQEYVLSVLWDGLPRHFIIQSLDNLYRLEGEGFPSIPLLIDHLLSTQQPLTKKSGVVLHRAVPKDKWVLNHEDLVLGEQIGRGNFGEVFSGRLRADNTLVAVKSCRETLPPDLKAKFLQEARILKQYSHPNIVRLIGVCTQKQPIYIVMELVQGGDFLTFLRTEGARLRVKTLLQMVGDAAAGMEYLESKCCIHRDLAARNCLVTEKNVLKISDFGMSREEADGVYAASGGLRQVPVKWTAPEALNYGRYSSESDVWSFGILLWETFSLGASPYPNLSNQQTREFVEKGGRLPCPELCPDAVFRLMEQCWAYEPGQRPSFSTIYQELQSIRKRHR

[3] = biological target: T2, Receptor-type tyrosine-protein kinase FLT3 (Homo sapiens, UniProt P36888); assay: Selectivity interaction (NanoBRET assay (HEK293T cells)) EUB0001559a FLT3; assay type: cell-based, HEK-293T
T2 sequence (P36888 whole entry): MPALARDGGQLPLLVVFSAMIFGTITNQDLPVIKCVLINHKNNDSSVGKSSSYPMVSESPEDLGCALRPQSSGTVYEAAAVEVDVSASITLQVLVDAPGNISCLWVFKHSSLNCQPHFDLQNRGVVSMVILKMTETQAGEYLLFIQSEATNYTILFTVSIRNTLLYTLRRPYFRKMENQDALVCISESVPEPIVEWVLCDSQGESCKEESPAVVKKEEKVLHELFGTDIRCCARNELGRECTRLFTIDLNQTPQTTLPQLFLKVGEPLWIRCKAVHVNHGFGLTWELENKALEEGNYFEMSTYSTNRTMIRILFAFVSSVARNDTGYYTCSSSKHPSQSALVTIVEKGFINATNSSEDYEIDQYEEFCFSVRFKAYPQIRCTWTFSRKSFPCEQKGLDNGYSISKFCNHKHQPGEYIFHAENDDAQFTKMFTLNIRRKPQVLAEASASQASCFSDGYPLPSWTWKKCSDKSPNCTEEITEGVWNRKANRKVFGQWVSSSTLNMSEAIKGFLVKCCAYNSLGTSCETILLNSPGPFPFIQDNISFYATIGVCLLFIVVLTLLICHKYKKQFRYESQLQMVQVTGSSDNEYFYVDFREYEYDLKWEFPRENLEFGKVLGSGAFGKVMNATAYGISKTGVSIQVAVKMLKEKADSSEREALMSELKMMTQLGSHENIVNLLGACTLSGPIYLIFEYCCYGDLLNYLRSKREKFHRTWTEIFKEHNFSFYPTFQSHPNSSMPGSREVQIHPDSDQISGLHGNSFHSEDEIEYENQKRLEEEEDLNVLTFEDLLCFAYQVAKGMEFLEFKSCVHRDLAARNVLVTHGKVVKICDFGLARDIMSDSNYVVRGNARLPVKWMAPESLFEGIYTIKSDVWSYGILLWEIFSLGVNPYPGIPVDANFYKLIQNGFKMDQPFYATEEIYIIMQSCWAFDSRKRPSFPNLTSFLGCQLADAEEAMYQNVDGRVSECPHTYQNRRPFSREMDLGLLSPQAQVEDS

[4] = biological target: T3, 3-phosphoinositide-dependent protein kinase 1 (Homo sapiens) (UniProt O15530); assay: Selectivity interaction (KinomeScan (DiscoverX)) EUB0000607a PDPK1; details: at 10 µM
T3 sequence (whole entry): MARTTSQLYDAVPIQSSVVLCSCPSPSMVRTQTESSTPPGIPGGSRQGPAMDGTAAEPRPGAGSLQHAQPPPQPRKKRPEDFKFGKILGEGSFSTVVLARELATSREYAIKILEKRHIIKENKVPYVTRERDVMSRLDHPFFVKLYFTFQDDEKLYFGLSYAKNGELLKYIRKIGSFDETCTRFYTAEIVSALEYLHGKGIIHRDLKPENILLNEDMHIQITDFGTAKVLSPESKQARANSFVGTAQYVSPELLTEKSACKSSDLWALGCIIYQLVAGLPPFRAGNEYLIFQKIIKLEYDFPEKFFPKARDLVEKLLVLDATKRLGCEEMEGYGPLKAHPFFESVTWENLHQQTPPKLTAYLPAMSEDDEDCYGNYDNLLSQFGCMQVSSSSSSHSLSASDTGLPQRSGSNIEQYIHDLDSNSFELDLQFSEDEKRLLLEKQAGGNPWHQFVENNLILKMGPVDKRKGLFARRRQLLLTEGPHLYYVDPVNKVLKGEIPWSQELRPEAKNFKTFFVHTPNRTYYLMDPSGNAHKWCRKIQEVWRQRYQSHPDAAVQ

SMILES: CCC(=O)N1CCN(c2ccc(-n3c(=O)ccc4cnc5ccc(-c6cnc7ccccc7c6)cc5c43)cc2C(F)(F)F)CC1
% of control [1]: 70%

% of inhibition [2]: -3%
SMILES: Cc1ccc(-c2ccc3c(ccc4sc5c(c43)NC[C@@H](C)NC5=O)n2)cn1

pEC50 [3]: 2.44
SMILES: CN(C(=O)c1cnn2cccnc12)c1cc2c(cc1N1CCOCC1)C(=O)N(C[C@@H](F)C(C)(C)O)C2

SMILES: CNC(=O)Nc1ccc(-c2nc(N3CC4CCC(C3)O4)c3cnn(C4CCC5(CC4)OCCO5)c3n2)cc1
% of control [4]: 76%
